Data from patent publication US20260317324A1, “BIFUNCTIONAL COMPOUNDS FOR DEGRADING BRAF VIA UBIQUITIN PROTEOSOME PATHWAY” (Nurix Therapeutics, Inc., priority 2023, published 2026).

How the values were obtained:
Format in all cases: cell-based
[1] = molecular target: T1, BRAF D594G (Homo sapiens, UniProt P15056, D594G); test: BRAF HiBiT degradation assay, C-terminal HiBiT-tagged BRAF D594G overexpressed in HCT-116 BRAF−/− cells (clone 63), Nano-Glo HiBiT Lytic assay
T1 construct: Horizon Discovery (HCT-116 BRAF−/− cells); host or cells: HCT-116 BRAF−/− cells, clone 63, lentiviral transduction
Source text: (§1) An A375 cell line expressing a homozygous V600E mutation was purchased from ATCC (Manassas, VA, USA). An A375 clone 1F10 cell line with an endogenous C-terminal HiBiT fusion tag on BRAF V600E allele was generated internally using CRISPR-Cas9 technology and cultured in DMEM, high glucose supplemented with 10% FBS and 1× GlutaMAX. A HCT-116 BRAF−/− cell line overexpressing the C-terminal HiBiT-tagged G466V, G469A, and D594G mutants were generated by lentiviral transduction, externally at Biosettia Inc (San Diego, CA, USA). The stably transfected cells were cultured in RPMI media supplemented with 10% FBS, 1× GlutaMAX, and 0.25 μg/ml puromycin. DMEM medium, RPMI 1640 medium, GlutaMAX, fetal bovine serum (FBS), and puromycin were purchased from Gibco (Grand Island, NY, USA). HCT-116 BRAF−/− cells were purchased from Horizon Discovery (Waterbeach, UK).
(§2) The C-terminal HiBiT tagged mutant BRAF G466V, G469A, and D594G overexpressed in HCT-116 BRAF−/− cells (monoclonal cell line, cell clones 8, 34, and 63, respectively) were seeded at the density of 3,000 cells/well in 30 μL media (RPMI supplemented with 10% FBS and 1× GlutaMAX) in white opaque 384-well plates (Corning #3570) from column 1 to column 23. Wildtype HCT-116 BRAF cells were seeded in column 24 at the same cell density in 30 μL media. Cells were incubated at 37° C. with 5% CO2 for 24 h.
(§3) Intermediate compound dilution series (5-point, ranging from 5 mM to 0.5 μM, 10-fold dilutions in DMSO) were prepared in a source plate (Beckman Coulter cat. no. 001-16128). Final compound dilution series (11-point, ranging from 1 μM to 0.01 nM, half-log dilutions in DMSO) were stamped into the assay plate (Corning #3570, column 1-11 and 12-22) using the Echo Acoustic Liquid Handler (Beckman Coulter). Each compound was plated in duplicate, and the total volume of compound DMSO solution was 60 nL/well (0.2% final DMSO concentration). DMSO was included in wells A23-L23 and A24-L24. The DMSO-treated HiBiT-tagged samples served as Negative Control (NC) and the DMSO-treated wildtype samples served as Background Control (BC) for the HiBiT assay.
(§4) HiBiT signal was measured by a Nano-Glo HiBiT Lytic assay (Promega cat. no. N3050). HiBiT lytic detection reagent (Nano-Glo HiBiT Lytic Buffer with 1:50 Nano-Glo HiBiT Lytic Substrate and 1:100 LgBiT Protein, 40 μL) was added using Bravo. The mixture was incubated at room temperature, in the dark, and with gentle shaking for 10 min. Luminesce units (LU) were read on an EnVision plate reader 2105 (Perkin Elmer).
(§5) Percent protein remaining and viability remaining per sample were calculated as follows: […]
(§6) % Protein remaining values were plotted as a function of compound concentration. XC50 (DC50) values were determined by fitting curves using the following equation:
(§7) For the HiBiT degradation assay, the key parameters reported include: • The dose of compound that produces 50% degradation (DC50 at 50%): • DC50 at 50%: the Fitted X value (Conc.) at Y=50 (response) • Observed Dmax (Obs. Dmax) is the percentage protein degraded at maximal compound effect relative to DMSO-treated control: […]

[2] = molecular target: T2, BRAF G469A (Homo sapiens, UniProt P15056, G469A); test: BRAF HiBiT degradation assay, C-terminal HiBiT-tagged BRAF G469A overexpressed in HCT-116 BRAF−/− cells (clone 34), Nano-Glo HiBiT Lytic assay
T2 construct: Horizon Discovery (HCT-116 BRAF−/− cells); host or cells: HCT-116 BRAF−/− cells, clone 34, lentiviral transduction
Source text: as §1, §2, §3, §4, §5, §6, §7

[3] = molecular target: T3, BRAF V600E (Homo sapiens, UniProt P15056, V600E); test: BRAF HiBiT degradation assay, C-terminal HiBiT-tagged BRAF V600E A375 cells (clone 1F10), Nano-Glo HiBiT Lytic assay; conditions: for Dmax: A-375
T3 construct: endogenous C-terminal HiBiT fusion tag on BRAF V600E allele; endogenous in cells; host or cells: A375 clone 1F10 (CRISPR-Cas9 knock-in of the HiBiT tag; parental A375 from ATCC)
How it was run: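 Degradation is measured as loss of HiBiT signal from BRAF V600E tagged at its native locus in A375 cells. Doses span 1 μM to 0.01 nM in half-log steps, in duplicate. Percent remaining is calculated against DMSO controls after subtracting untagged A375 background, and curve fitting yields DC50 and observed Dmax.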

[4] = molecular target: T4, BRAF G466V (Homo sapiens, UniProt P15056, G466V); test: BRAF HiBiT degradation assay, C-terminal HiBiT-tagged BRAF G466V overexpressed in HCT-116 BRAF−/− cells (clone 8), Nano-Glo HiBiT Lytic assay
T4 construct: Horizon Discovery (HCT-116 BRAF−/− cells); host or cells: HCT-116 BRAF−/− cells, clone 8, lentiviral transduction
Source text: as §1, §2, §3, §4, §5, §6, §7

[5] = BRAF D594G (Class 3), HCT-116 BRAF−/− cells, DC50 at 50% degradation
[6] = BRAF D594G (Class 3), HCT-116 BRAF−/− cells, observed Dmax relative to DMSO control
[7] = BRAF G469A (Class 2), HCT-116 BRAF−/− cells, DC50 at 50% degradation
[8] = BRAF G469A (Class 2), HCT-116 BRAF−/− cells, observed Dmax relative to DMSO control
[9] = A375 (BRAF V600E, Class 1), DC50 at 50% degradation
[10] = A375 (BRAF V600E, Class 1), observed Dmax, % protein degraded relative to DMSO control
[11] = BRAF G466V (Class 3), HCT-116 BRAF−/− cells, DC50 at 50% degradation
[12] = BRAF G466V (Class 3), HCT-116 BRAF−/− cells, observed Dmax relative to DMSO control
[13] = BRAF D594G, DC50 at 50%: fitted conc. at Y=50
[14] = HCT-116, BRAF D594G, percentage protein degraded at maximal compound effect relative to DMSO
[15] = Class 2, BRAF G469A, DC50 at 50%: fitted conc. at Y=50
[16] = HCT-116, Class 2, BRAF G469A, percentage protein degraded at maximal compound effect relative to DMSO
[17] = A375 (BRAF V600E), DC50 at 50%: fitted conc. at Y=50
[18] = A375 (BRAF V600E), percentage protein degraded at maximal compound effect relative to DMSO
[19] = BRAF G466V, DC50 at 50%: fitted conc. at Y=50
[20] = HCT-116, BRAF G466V, percentage protein degraded at maximal compound effect relative to DMSO

T4 sequence (P15056 whole entry G466V): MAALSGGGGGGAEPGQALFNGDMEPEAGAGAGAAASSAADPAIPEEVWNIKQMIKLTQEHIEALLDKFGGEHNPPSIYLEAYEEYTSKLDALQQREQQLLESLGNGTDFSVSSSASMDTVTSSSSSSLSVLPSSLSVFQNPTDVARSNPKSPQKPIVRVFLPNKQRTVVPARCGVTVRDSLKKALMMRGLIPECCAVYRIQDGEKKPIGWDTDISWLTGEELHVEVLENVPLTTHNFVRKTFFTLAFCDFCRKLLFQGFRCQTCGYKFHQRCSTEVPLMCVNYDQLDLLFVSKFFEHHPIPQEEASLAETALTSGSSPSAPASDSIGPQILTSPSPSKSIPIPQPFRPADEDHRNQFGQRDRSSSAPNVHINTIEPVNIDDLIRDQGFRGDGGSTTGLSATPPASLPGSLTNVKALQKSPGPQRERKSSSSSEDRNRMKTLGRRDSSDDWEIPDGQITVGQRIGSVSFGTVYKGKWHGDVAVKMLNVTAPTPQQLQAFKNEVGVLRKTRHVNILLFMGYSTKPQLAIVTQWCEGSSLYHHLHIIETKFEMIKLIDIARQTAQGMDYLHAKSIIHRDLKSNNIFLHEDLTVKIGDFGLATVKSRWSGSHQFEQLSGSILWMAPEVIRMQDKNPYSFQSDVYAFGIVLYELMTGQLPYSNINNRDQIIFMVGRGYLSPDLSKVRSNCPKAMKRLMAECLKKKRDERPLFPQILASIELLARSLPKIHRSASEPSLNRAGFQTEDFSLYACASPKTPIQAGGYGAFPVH
T2 sequence (P15056 whole entry G469A): as the sequence (P15056 whole entry G466V) above, with V466G, G469A counted along it
T3 sequence (P15056 whole entry V600E, the tested form may be a part): as the sequence (P15056 whole entry G466V) above, with V466G, V600E counted along it
T1 sequence (P15056 whole entry D594G): as the sequence (P15056 whole entry G466V) above, with V466G, D594G counted along it

SMILES | DC50 [1, 5] [nM] | Dmax [1, 6] [%] | DC50 [2, 7] [nM] | Dmax [2, 8] [%] | DC50 [3, 9] [nM] | Dmax [3, 10] [%] | DC50 [4, 11] [nM] | Dmax [4, 12] [%] | DC50 [1, 13] [nM] | Dmax [1, 14] [%] | DC50 [2, 15] [nM] | Dmax [2, 16] [%] | DC50 [3, 17] [nM] | Dmax [3, 18] [%] | DC50 [4, 19] [nM] | Dmax [4, 20] [%]
O=C1CCC(c2ccc(N3CCC(CN4CCN(c5ccc(-n6cc(-c7cc(Cl)cc(NS(=O)(=O)N8CCCC8)c7F)c(-c7ccncc7)n6)c(F)c5)CC4)CC3)nc2)C(=O)N1 (racemic) [Compound 266, Rac-(R)—N-(5-chloro-3-(1-(4-(4-((1-(5-(2,6-dioxopiperidin-3-yl)pyridin-2-yl)piperidin-4-yl)methyl)piperazin-1-yl)-2-fluorophenyl)-3-(pyridin-4-yl)-1H-pyrazol-4-yl)-2-fluorophenyl)pyrrolidine-1-sulfonamide] | < 10 | 30 to 70 | 10 to 50 | > 70 | < 10 | > 70 | < 10 | > 70 |  |  |  |  |  |  |  | 
CCCS(=O)(=O)Nc1cccc(-c2nc(C3CCN(C(=O)C4CCN(CC5CCN(c6cccc7c6n(C)c(=O)n7C6CCC(=O)NC6=O)CC5)CC4)CC3)sc2-c2ccnc(N)n2)c1F (racemic) [Compound 195, Rac-N-{3-[5-(2-aminopyrimidin-4-yl)-2-(1-{1-[(1-{1-[(3R)-2,6-dioxopiperidin-3-yl]-3-methyl-2-oxo-2,3-dihydro-1H-1,3-benzodiazol-4-yl}piperidin-4-yl)methyl]piperidine-4-carbonyl}piperidin-4-yl)-1,3-thiazol-4-yl]-2-fluorophenyl}propane-1-sulfonamide] |  |  |  |  |  |  |  |  | < 10 | 30 to 70 | < 10 | 30 to 70 | < 10 | > 70 | < 10 | 30 to 70
CCCS(=O)(=O)Nc1cccc(-c2nc(C(C)(C)C)sc2-c2ccnc(Nc3cnn(CC4CCN(C(=O)CN5CCC(c6ccc(NC7CCC(=O)NC7=O)cc6)CC5)CC4)c3)n2)c1F (racemic) [Compound 116, Rac-N-(3-{2-tert-butyl-5-[2-({1-[(1-{2-[4-(4-{[(3R)-2,6-dioxopiperidin-3-yl]amino}phenyl)piperidin-1-yl]acetyl}piperidin-4-yl)methyl]-1H-pyrazol-4-yl}amino)pyrimidin-4-yl]-1,3-thiazol-4-yl}-2-fluorophenyl)propane-1-sulfonamide] |  |  |  |  |  |  |  |  | > 500 | < 30 | > 500 | < 30 | 10 to 50 | > 70 | > 500 | 30 to 70
O=C1CC[C@H](c2ccc(N3CCC(CN4CCN(c5ccc(-n6cc(-c7cc(F)cc(NS(=O)(=O)N8CCCC8)c7F)c(-c7ccncc7)n6)cc5)CC4)CC3)nc2)C(=O)N1 [Compound 301, N-{3-[1-(4-{4-[(1-{5-[(3R)-2,6-dioxopiperidin-3-yl]pyridin-2-yl}piperidin-4-yl)methyl]piperazin-1-yl}phenyl)-3-(pyridin-4-yl)-1H-pyrazol-4-yl]-2,5-difluorophenyl}pyrrolidine-1-sulfonamide] | < 10 | 30 to 70 | 10 to 50 | > 70 | < 10 | > 70 | < 10 | > 70 |  |  |  |  |  |  |  | 
CCN(C)S(=O)(=O)Nc1cc(Cl)cc(-c2cn(-c3ccc(N4CCN(CC5CCN(c6ccc([C@H]7CCC(=O)NC7=O)cc6)CC5)CC4)cc3)nc2-c2ccncc2)c1F [Compound 306, (3R)-3-(4-{4-[(4-{4-[4-(5-chloro-3-{[ethyl(methyl)sulfamoyl]amino}-2-fluorophenyl)-3-(pyridin-4-yl)-1H-pyrazol-1-yl]phenyl}piperazin-1-yl)methyl]piperidin-1-yl}phenyl)piperidine-2,6-dione] | < 10 | 30 to 70 | 10 to 50 | 30 to 70 | < 10 | > 70 | < 10 | > 70 |  |  |  |  |  |  |  | 
CCCS(=O)(=O)Nc1cccc(-c2nc(C(C)(C)C)sc2-c2ccnc(Nc3ccc(N4CCN(C(=O)C5CCN(c6ccc(C7CCC(=O)NC7=O)cc6)CC5)CC4)cc3)n2)c1F (racemic) [Compound 38, Rac-N-(3-{2-tert-butyl-5-[2-({4-[4-(1-{4-[(3R)-2,6-dioxopiperidin-3-yl]phenyl}piperidine-4-carbonyl)piperazin-1-yl]phenyl}amino)pyrimidin-4-yl]-1,3-thiazol-4-yl}-2-fluorophenyl)propane-1-sulfonamide] |  |  |  |  |  |  |  |  | > 500 | 30 to 70 | 10 to 50 | < 30 | < 10 | > 70 | > 500 | < 30
CCN(C)S(=O)(=O)Nc1cccc(-c2nc(C(C)(C)C)sc2-c2ccnc(Nc3ccc(N4CCN(C(=O)C5CCN(c6ccc(C7CCC(=O)NC7=O)cc6)CC5)CC4)cn3)n2)c1F (racemic) [Compound 36, Rac-(3S)-3-[4-(4-{4-[6-({4-[2-tert-butyl-4-(3-{[ethyl(methyl)sulfamoyl]amino}-2-fluorophenyl)-1,3-thiazol-5-yl]pyrimidin-2-yl}amino)pyridin-3-yl]piperazine-1-carbonyl}piperidin-1-yl)phenyl]piperidine-2,6-dione] |  |  |  |  |  |  |  |  | > 500 | 30 to 70 | 10 to 50 | 30 to 70 | < 10 | > 70 | > 500 | < 30
CCN(C)S(=O)(=O)Nc1cccc(-c2cn(-c3ccc(N4CCN(CC5CCN(c6ccc([C@@H]7CCC(=O)NC7=O)cn6)CC5)CC4)c(F)c3)nc2-c2ccncc2)c1F [Compound 380, (3S)-3-(6-{4-[(4-{4-[4-(3-{[ethyl(methyl)sulfamoyl]amino}-2-fluorophenyl)-3-(pyridin-4-yl)-1H-pyrazol-1-yl]-2-fluorophenyl}piperazin-1-yl)methyl]piperidin-1-yl}pyridin-3-yl)piperidine-2,6-dione] | 10 to 50 | 30 to 70 | > 500 | 30 to 70 | 50 to 500 | > 70 | 50 to 500 | 30 to 70 |  |  |  |  |  |  |  | 
